Common to all, as to assay type: cell-based
Assay [1] concerns chicken CTR. In words: cAMP/PKA pGL3-CRE-luciferase reporter assay, CTR + pcDNA in CHO cells. Conditions: for EC50: CTR + pcDNA, CHO cells, pGL3-CRE-luciferase, 10^−12 M to 10^−6 M, 6 h, mean ± SEM, n = 3, read-out: EC50, cAMP/PKA signaling pathway; for activation (cAMP production), in words: independent CTR. The procedure:
(§1) Chinese hamster ovary (CHO) cells were cultured in Dulbecco’s modified Eagle’s medium (DMEM) supplemented with 10% (vol/vol) fetal bovine serum (HyClone, Logan, UT, USA), 100 U/mL penicillin G and 100 μg/mL streptomycin. The cells were maintained in a 90 mm culture dish (Nunc, Rochester, NY, USA) and incubated at 37 °C with 5% CO2. To investigate the signaling pathways associated with each receptor in CHO cells, three different reporter systems (pGL3-CRE-luciferase, pGL4-SRE-luciferase, and pGL3-NFAT-RE-luciferase) were utilized to monitor intracellular cAMP/PKA and MAPK/ERK signaling pathways and calcium mobilization of the activated receptors, respectively.
(§2) Prior to the transfection procedure, the cells were initially cultured in 6-well plates (Nunc, Rochester, NY, USA), maintaining a seeding density of approximately 300,000 cells per well. Upon achieving approximately 70% confluence, the cells underwent a co-transfection process. This procedure entailed the introduction of 700 ng of various luciferase reporter constructs (namely, pGL3-CRE-luciferase, pGL4-SRE-luciferase, or pGL3-NFAT-RE-luciferase) combined with 200 ng of a specific receptor plasmid (CTR or CLR) and 1000 ng of either RAMP1, RAMP2, RAMP3 expression plasmids, or alternatively, the empty pcDNA3.1 (+) vector. A volume of 5.7 μL of PEI MAX was used in 200 μL of buffer following the manufacturer’s protocol. After 24 h of incubation, the transfected CHO cells were subcultured in 96-well plates and passaged for an additional 24 h before peptide treatment. Then, the medium from the 96-well plates was removed, and the cells were treated with chicken CT/CGRP-containing medium (or untreated medium as a control) at concentrations ranging from 10^−12 M to 10^−6 M for 6 h. Subsequently, the cells were harvested for luciferase assays by lysing them in 1 × passive lysis buffer. To measure the luciferase activity of the cell lysate, 40 μL of luciferase assay reagent (Promega, Madison, WI, USA) was mixed with the cell lysate following the manufacturer’s instructions. The fluorescence activity of the luciferase in each treatment group was measured using a multimode microplate reader (TriStar LB941, Berthold Technologies, Bad Wildbad, Germany). Finally, the fluorescence activity of each treatment group was expressed as a relative increase ratio compared to the control group.
Background: In a reporter assay the amount or activity of a reporter protein is the signal.

Another assay relates to chicken CTR + RAMP1. In words: cAMP/PKA pGL3-CRE-luciferase reporter assay, CTR + RAMP1 in CHO cells. To be noted: 10^−12 M to 10^−6 M, 6 h, mean ± SEM, n = 3, read-out: EC50, cAMP/PKA signaling pathway. The procedure: as §1
(§3) Prior to the transfection procedure, the cells were initially cultured in 6-well plates (Nunc, Rochester, NY, USA), maintaining a seeding density of approximately 300,000 cells per well. Upon achieving approximately 70% confluence, the cells underwent a co-transfection process. […] The fluorescence activity of the luciferase in each treatment group was measured using a multimode microplate reader (TriStar LB941, Berthold Technologies, Bad Wildbad, Germany). Finally, the fluorescence activity of each treatment group was expressed as a relative increase ratio compared to the control group.

A further assay concerns chicken CTR + RAMP2. In words: cAMP/PKA pGL3-CRE-luciferase reporter assay, CTR + RAMP2 in CHO cells. Conditions: 10^−12 M to 10^−6 M, 6 h, mean ± SEM, n = 3, read-out: EC50, cAMP/PKA signaling pathway. The procedure: as §1, §3
The subject of assay [2] is chicken CLR + RAMP1. In words: MAPK/ERK pGL4-SRE-luciferase reporter assay, CLR + RAMP1 in CHO cells. To be noted: 10^−12 M to 10^−6 M, 6 h, mean ± SEM, n = 3, read-out: EC50, MAPK/ERK signaling pathway. How it is done:
as §1, §3

Assay [3] has as its system chicken CLR + RAMP2. Nature of the assay: MAPK/ERK pGL4-SRE-luciferase reporter assay, CLR + RAMP2 in CHO cells. Conditions: 10^−12 M to 10^−6 M, 6 h, mean ± SEM, n = 3, read-out: EC50, MAPK/ERK signaling pathway. How it is done:
as §1, §3

Assay [4] relates to chicken CLR + RAMP3. In words: MAPK/ERK pGL4-SRE-luciferase reporter assay, CLR + RAMP3 in CHO cells. Conditions: 10^−12 M to 10^−6 M, 6 h, mean ± SEM, n = 3, read-out: EC50, MAPK/ERK signaling pathway. The procedure: as §1, §3
A further assay concerns chicken CTR + RAMP3. Nature of the assay: Calcium pGL3-NFAT-RE-luciferase reporter assay, CTR + RAMP3 in CHO cells. To be noted: 10^−12 M to 10^−6 M, 6 h, mean ± SEM, n = 3, read-out: EC50, calcium signaling pathway. The procedure:
as §1, §3

The test system of assay [5] is chicken CLR + RAMP2. Nature of the assay: Calcium pGL3-NFAT-RE-luciferase reporter assay, CLR + RAMP2 in CHO cells. To be noted: for EC50: CLR + RAMP2, CHO cells, pGL3-NFAT-RE-luciferase, 10^−12 M to 10^−6 M, 6 h, mean ± SEM, n = 3, read-out: EC50, calcium signaling pathway. The procedure:
as §1
as §2, with “Subsequently, the cells were harvested for luciferase assays by lysing them in 1 × passive lysis buffer. To measure the luciferase activity of the cell lysate, 40 μL of luciferase assay reagent (Promega, Madison, WI, USA) was mixed with the cell lysate following the manufacturer’s instructions.” left out

Assay [6] deals with chicken CTR. Nature of the assay: Western blot CREB phosphorylation, CTR in CHO cells. Conditions: 10 nM, 10 min, n = 3. How it is done:
(§4) To assess whether the activation of chicken CTR and CLR, along with the presence of RAMPs, can augment the phosphorylation levels of cAMP response element-binding protein (CREB), 200 ng of CTR or CLR expression plasmids were combined with 1000 ng of chicken RAMPs or an empty pcDNA3.1 (+) vector in a 100 μL buffer. The resulting mixture was then transfected into CHO cells in a 12-well plate (Nunc, Rochester, NY, USA) using 3.6 μL of PEI MAX transfection reagent. After a 24 h incubation period, the cells were exposed to chicken CT (10 nM) or CGRP (10 nM) for 10 min. Subsequently, the culture medium was removed, and the cells were lysed according to the manufacturer’s instructions. Western blot analysis was performed to quantify the levels of CREB and phosphorylated CREB (p-CREB). The optical densities were analyzed and normalized using the software, ImageJ 1.52a (National Institutes of Health, Bethesda, MD, USA). The relative expression of p-CREB/CREB was determined by calculating the ratio of the optical density to that of the control without peptide treatment (0 min).
(Immunoblotting shows a protein as a band on a membrane.)

In assay [7] the test system is chicken CLR. Nature of the assay: Western blot CREB phosphorylation, CLR in CHO cells. Conditions: 10 nM, 10 min, n = 3. The procedure: as §4
The subject of a further assay is chicken CLR + RAMPs. Nature of the assay: Western blot CREB phosphorylation, CLR + RAMPs in CHO cells. To be noted: 10 nM, 10 min, n = 3. The procedure:
as §4

Assay [8] relates to chicken CLR. Nature of the assay: Calcium pGL3-NFAT-RE-luciferase reporter assay, CLR + pcDNA in CHO cells. To be noted: 10^−12 M to 10^−6 M, 6 h, mean ± SEM, n = 3, read-out: EC50, calcium signaling pathway. How it is done:
as §1, §3

Assay [9] relates to chicken CLR + RAMP1. In words: Western blot CREB phosphorylation, CLR + RAMP1 in CHO cells. Conditions: 10 nM, 10 min, n = 3. How it is done:
as §4

In assay [10] the test system is chicken CLR + RAMP3. In words: Western blot CREB phosphorylation, CLR + RAMP3 in CHO cells. To be noted: 10 nM, 10 min, n = 3. The procedure:
as §4

Turning to calcitonin [CT], the EC50 in the assay with chicken CTR [1] amounted to 0.15 ± 0.04 nM; in the assay with chicken CTR + RAMP1, 0.77 ± 0.07 nM; in the assay with chicken CTR + RAMP2, 0.67 ± 0.1 nM; in the assay on chicken CLR + RAMP1 [2] it was 0.89 ± 0.2 nM; with chicken CLR + RAMP2 [3], 0.38 ± 0.09 nM; in the assay with chicken CLR + RAMP3 [4], 1 ± 0.45 nM. The EC50 with chicken CTR + RAMP3 was greater than 100 nM; with chicken CLR + RAMP2 [5], 1.52 ± 1.32 nM. The “activation (cAMP production), in words” value in the assay with chicken CTR [1] is “strongly activates”. Also, the “elevation in luciferase activity, calcium signaling” value in the assay with chicken CLR + RAMP2 [5] (CLR + RAMP2, pGL3-NFAT-RE-luciferase, CHO cells) is “modest elevation in luciferase activity”. Also, the “CREB phosphorylation (p-CREB/CREB vs. control, 0 min)” value in the assay with chicken CTR [6] was “significantly increased the CREB phosphorylation”; in the assay on chicken CLR [7], “significantly enhanced the CREB phosphorylation”; in the assay with chicken CLR + RAMPs, “significantly enhanced the CREB phosphorylation”.
On to calcitonin gene-related peptide [CGRP], for which the EC50 with chicken CTR [1] came out at 2.35 ± 0.63 nM; with chicken CTR + RAMP1 it was 0.1 ± 0.01 nM; in the assay with chicken CTR + RAMP2, 1.63 ± 0.19 nM; in the assay with chicken CLR + RAMP1 [2] it was 0.66 ± 0.11 nM; in the assay on chicken CLR + RAMP2 [3], 90.9 ± 17.4 nM; with chicken CLR + RAMP3 [4], 4.31 ± 1.73 nM. The EC50 with chicken CTR + RAMP3, in the assay with chicken CLR [8] and in the assay on chicken CLR + RAMP2 [5] was greater than 100 nM in each case. Moreover, in the assay with chicken CTR [1], the “activation (cAMP production), in words” value is given as “preferentially activates CTR”. Moreover, the entries for the “CREB phosphorylation (p-CREB/CREB vs. control, 0 min)” value with chicken CTR [6], in the assay with chicken CLR + RAMP1 [9] and in the assay on chicken CLR + RAMP3 [10] were “significantly increased the CREB phosphorylation”, “significantly enhanced the CREB phosphorylation” and “significantly enhanced the CREB phosphorylation”, respectively.

Values taken from article PMC11010885, “Functional Analysis and Tissue-Specific Expression of Calcitonin and CGRP with RAMP-Modulated Receptors CTR and CLR in Chickens” (Animals : an Open Access Journal from MDPI, 2024).
